Laboratory results from patent publication US20160318866A1, “SUBSTITUTED BIPIPERIDINYL DERIVATIVES” (Bayer Pharma Aktiengesellschaft, priority 2013, published 2016).

Tests used:
[1] = molecular target: T1, human α2C receptor (Homo sapiens, UniProt P18825); experiment: Antagonism against the adrenoreceptor α2C (luminescence, recombinant CHO cell line); type: cell-based; conditions: antagonism against adrenoreceptor α2C; noradrenaline 20 nM; tested up to 10 μM; read-out: IC50
T1 construct: expressed in transfected cells; host or cells: CHO cells, also recombinantly expressing chimeric G protein Gαqi3 and mitochondrial obelin (mtOb)
T1 sequence (P18825 1-462): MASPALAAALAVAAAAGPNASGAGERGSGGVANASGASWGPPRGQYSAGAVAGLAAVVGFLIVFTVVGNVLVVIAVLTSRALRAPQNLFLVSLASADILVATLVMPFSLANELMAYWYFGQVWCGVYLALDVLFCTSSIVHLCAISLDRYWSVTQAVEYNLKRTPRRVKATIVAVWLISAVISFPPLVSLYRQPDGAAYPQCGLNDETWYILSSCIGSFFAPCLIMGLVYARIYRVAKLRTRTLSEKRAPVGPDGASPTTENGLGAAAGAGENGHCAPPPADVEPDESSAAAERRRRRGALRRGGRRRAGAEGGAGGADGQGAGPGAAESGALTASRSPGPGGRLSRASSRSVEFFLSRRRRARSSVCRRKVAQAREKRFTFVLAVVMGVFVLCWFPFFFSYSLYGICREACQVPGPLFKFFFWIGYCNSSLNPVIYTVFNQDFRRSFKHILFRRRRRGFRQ
Summary of the method: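 CHO cells expressing human α2C receptor with chimeric Gαqi3 and mitochondrial obelin, loaded with 2.5 μg/ml coelenterazine for one day at 30 °C.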

[2] = system: diabetic (ZDFfa/fa) and healthy rats (Wistar); experiment: Assay of perfusion-enhancing substances (microcirculation), laser doppler at the paw; type: in vivo, rat; conditions: single oral dose
Text: In diabetic (ZDFfa/fa) and healthy rats (Wistar), a laser doppler probe was fastened under anaesthesia conditions (isoflurane anaesthesia) at the sole of the paw for measuring cutaneous microcirculation. The test animals were once treated orally with the test substances. During the experiment, microperfusion and temperature of the lower extremities were documented continuously. Here, a temperature-sensitive laser doppler probe (Periflux, O2C) was fastened with adhesive to the paws of the animals, allowing the measurement of microperfusion and skin temperature. The microcirculation measurement values were measured on both paws 30 min after oral administration of the test substance. […] Also stated is the MED for the significant increase of skin temperature (ttest).

Compound: CC1CCCN(C2CCN(C(=O)c3ccc(C(C)(C)O)cc3)CC2)C1 (single isomer, unassigned) [Example 8, [4-(1-Hydroxy-1-methylethyl)phenyl)](3-methyl-1,4′-bipiperidin-1′-yl)methanone, (−)-enantiomer]
- IC50 [1]: 163 nM
- factor by which microcirculation is improved at this dose compared to placebo ([2]; at the MED, 30 min after administration): 2.3 x
- MED [mg/kg] skin temperature ([2]; minimum effective dose for significant increase of skin temperature (ttest)): 1 mg/kg
- MED [mg/kg] microcirculation ([2]; minimum effective dose for significantly improved microcirculation vs placebo, 30 min after administration): 1 mg/kg
